Reference: paper PMC8277899, “A novel RyR1-selective inhibitor prevents and rescues sudden death in mouse models of malignant hyperthermia and heat stroke” (Nature Communications, 2021)
Several values for one entry are separate records, joined by “and”; a condition that tells them apart may be missing. Identical values can stand only once. Like-named read-outs stand apart in the source and are kept apart here.

Key:
R2509C mice = format: in vivo, mouse; conditions: for Survival 60 min after administration (survivors/total) / mice surviving 60 min after administration: rescue
[1] = Pharmacokinetics after i.p. administration in mice; format: in vivo, mouse; parameters: Cpd1 concentration (sheet Fig S5a) / Cpd1 concentration (sheet Fig S5b): unit not given here; conditions: for concentration at 10 min / concentration at 30 min / concentration at 60 min / Cmax / half-life / concentration at 5 min: C57BL/6J, mouse, plasma; for concentration at 10 min / concentration at 30 min / concentration at 60 min / concentration at 5 min: intraperitoneal; for Cmax / half-life: ip; for Cpd1 concentration (sheet Fig S5b) / Cpd1 concentration (sheet Fig S5a): i.p., single mice
Procedure: Cpd1 sodium salt (3 mg/kg and 10 mg/kg) dissolved in normal saline was administered i.p. to WT C57BL/6 J mice (10 week-old). Serial tail bled blood samples (∼20 μL) were collected using heparinized tip at 5, 10, 30, and 60 min after administration. Aliquots (5 μL) of plasma samples obtained from each blood were treated with 50 μL of acetonitrile and organic layer were injected onto LC–MS/MS system (Waters Corp., Milford, MA, USA). The pharmacokinetic parameters included maximum concentration (Cmax), elimination half-life (T½).

[2] = tested on: FDB muscle cells from R2509C mice; test: Ca2+ imaging (Cal520, fura-2) of isolated single FDB cells from R2509C mice, rest, halothane, isoflurane; format: cell-based, mouse
Procedure: WT and mutant mice (R2509C, 8- to 20-week old; R163C, 12- to 16-week old, and G2435R, 12- to 16-week old) were euthanized and flexor digitorum brevis (FDB) muscles were dissected and incubated with 2 mg/mL collagenase (Worthington Biochemical Co., NJ, USA) in the HEPES-Krebs solution containing 2 mg/mL bovine serum albumin for 2–3 h at 37 °C. Following incubation, single cells were separated by gentle trituration in collagenase-free HEPES-Krebs solution. Isolated single FDB cells were seeded on a laminin-coated cover slip of the 35 mm glass-bottom dish or on 96 well plate coated with Cultrex basement membrane matrix (Trevigen, Minneapolis, USA).
Isolated single FDB cells were incubated with 4 µM Cal520-AM (AAT Bioquest, CA, USA) or fura-2-AM (Thermo Fisher Scientific) dye in the HEPES-Krebs solution (140 mM NaCl, 5 mM KCl, 2 mM CaCl2, 1 mM MgCl2, 11 mM glucose, 5 mM HEPES, pH 7.4) for 30 min at 37 °C. The cells were then washed three times with the HEPES-Krebs solution to remove excess dye, and after 30 min of de-esterification, fluorescence images were obtained with a 20X (NA = 0.75) objective lens of an inverted microscope (Nikon TE2000-E Japan) equipped with the sCMOS camera (Zyla, Andor, Belfast, Northern Ireland) using Metamorph v7 (Molecular Devices). Cal520 was excited at 480 ± 15 nm, and fluorescence was measured at wavelengths of 525 ± 25 nm. Fura-2 was excited at alternating lights of 340 ± 6 nm and 380 ± 6 nm, fluorescent light was detected at 510 ± 40 nm, and the ratio of fluorescence excited at 340 nm to that at 380 nm was determined. Imaging experiments were carried out at 26 °C by superfusing a HEPES-Krebs solution with or without halothane or isoflurane. Cpd1 was administered 5 min before measurements. For Mn^2+ quenching experiments, fura-2 was excited at 360 ± 12 nm and emitted fluorescence at 510 ± 40 nm was monitored. The cells were perfused with basal Krebs solution (140 mM NaCl, 5 mM KCl, 1 mM MgCl2, 11 mM glucose, 2 mM CaCl2, 10 mM HEPES, pH 7.4) for 60 s to obtain the baseline signal and then perfused with Mn^2+ quenching Krebs solution (140 mM NaCl, 5 mM KCl, 1 mM MgCl2, 11 mM glucose, 0.5 mM MnCl2, 10 mM HEPES, pH 7.4) for 180 s followed by reperfusion with basal Krebs solution for 120 s.

[3] = preventive, 10 mg/kg i.p. 10 min before isoflurane, 10 mg/kg

Which results are given for `CCCCCCCCn1cc(C(=O)O)c(=O)c2cc3c(cc21)OCO3` [Cpd1, 6,7-(methylenedioxy)-1-octyl-4-quinolone-3-carboxylic acid]?
effect on rise in rectal temperature (R2509C mice; 1 mg/kg i.p. 8 times at 10 min intervals, isoflurane): successfully prevented rise in the rectal temperature; Survival 90 min after isoflurane challenge (survivors/total) (R2509C mice; 1 mg/kg i.p. 8 times every 10 min): all the mice survived; effect of second and third administrations on rectal temperature (R2509C mice; 3 mg/kg i.p. each time rectal temperature reached 39 °C, isoflurane): successfully decreased the rectal temperature; effect on rise in rectal temperature (R2509C mice; preventive, 3 mg/kg i.p.): did not prevent rise in rectal temperature; Survival after 90 min of anesthesia (survivors/total) (R2509C mice; preventive, 3 mg/kg i.p. 10 min before isoflurane, 3 mg/kg): 1 out of 6; Survival after 90 min of anesthesia (survivors/total) (R2509C mice; preventive, 3 mg/kg i.p. 10 min before isoflurane, listed as Cpd 1, 3 mg/kg): 1/6; Time to death (R2509C mice; preventive, 3 mg/kg i.p., n = 5): 47 ± 15 min; effect on rise in rectal temperature (R2509C mice; preventive, 10 mg/kg i.p.): successfully prevented any rise in rectal temperature; Maximum rectal temperature (R2509C mice; [3]): 36.1797 °C and 35.7812 °C and 35.4844 °C and 36.3594 °C and 36.1344 °C and 36.1406 °C; Survival after 90 min of anesthesia (survivors/total) (R2509C mice; [3]): All the treated mice survived; Survival 60 min after administration (survivors/total) (R2509C mice; 3 mg/kg i.p. at 39 °C): 6/10; mice surviving 60 min after administration (R2509C mice; 3 mg/kg i.p. at 39 °C): 60%; Survival 60 min after administration (survivors/total) (R2509C mice; 10 mg/kg i.p. at 39 °C): 8/8; mice surviving 60 min after administration (R2509C mice; 10 mg/kg i.p. at 39 °C): 100%; plasma concentration ([1]; 3 mg/kg i.p., 10 min): 750 ng/mL and 510 ng/mL and 710 ng/mL and 660 ng/mL and 760 ng/mL; plasma concentration ([1]; 3 mg/kg i.p., 30 min): 150 ng/mL and 120 ng/mL and 140 ng/mL and 190 ng/mL; plasma concentration ([1]; 10 mg/kg i.p., 10 min): 2950 ng/mL and 3200 ng/mL and 1730 ng/mL and 2280 ng/mL and 1660 ng/mL; plasma concentration ([1]; 10 mg/kg i.p., 60 min): 50 ng/mL and 60 ng/mL; concentration at 10 min ([1]; 3 mg/kg, 3 mg/kg i.p., 10 min): 440 ng/mL; concentration at 30 min ([1]; 3 mg/kg, 3 mg/kg i.p., 30 min): 110 ng/mL; concentration at 10 min ([1]; 10 mg/kg, 10 mg/kg i.p., 10 min): 3080 ng/mL; concentration at 60 min ([1]; 10 mg/kg, 10 mg/kg i.p., 60 min): 40 ng/mL; Cmax ([1]; 3 mg/kg i.p.): 1500 ± 200 ng/mL; half-life ([1]; 3 mg/kg i.p., read-out: t1/2): 8.4 ± 1.4 min; Cmax ([1]; 10 mg/kg i.p.): 5400 ± 600 ng/mL; half-life ([1]; 10 mg/kg i.p., read-out: t1/2): 8.6 ± 1.6 min; half-life ([1]; both the 3 mg/kg and 10 mg/kg dose i.p., read-out: t1/2 (plasma half-life)): ~8 min; Cmax ([1]; female mice, 3 mg/kg i.p.): 1600 ± 100 ng/mL; half-life ([1]; female mice, 3 mg/kg i.p., read-out: t1/2): 8.6 ± 0.8 min; Cmax ([1]; female mice, 10 mg/kg i.p.): 6000 ± 400 ng/mL; half-life ([1]; female mice, 10 mg/kg i.p., read-out: t1/2): 9.3 ± 1 min; Cmax ([1]; female, 8-times injection of 1 mg/kg at 10 min intervals): 150 ± 110 ng/mL; half-life ([1]; female, 8-times injection of 1 mg/kg at 10 min intervals, read-out: t1/2): 14.8 ± 2.1 min; Cmax ([1]; male mice, 3 mg/kg i.p.): 1300 ± 400 ng/mL; half-life ([1]; male mice, 3 mg/kg i.p., read-out: t1/2): 8.3 ± 2.7 min; Cmax ([1]; male mice, 10 mg/kg i.p.): 5100 ± 1200 ng/mL; half-life ([1]; male mice, 10 mg/kg i.p., read-out: t1/2): 7.4 ± 2.5 min; Cmax ([1]; male, 8-times injection of 1 mg/kg at 10 min intervals): 670 ± 110 ng/mL; half-life ([1]; male, 8-times injection of 1 mg/kg at 10 min intervals, read-out: t1/2): 9.6 ± 2.7 min; plasma concentration ([1]; female, 8-times injection of 1 mg/kg at 10 min intervals, 5 min, 1 mg/kg): 110 ng/mL and 120 ng/mL; plasma concentration ([1]; female, 8-times injection of 1 mg/kg at 10 min intervals, 30 min, 1 mg/kg): 30 ng/mL; plasma concentration ([1]; female, 8-times injection of 1 mg/kg at 10 min intervals, 60 min, 1 mg/kg): 20 ng/mL; concentration at 5 min ([1]; female, 1 mg/kg, 8-times injection of 1 mg/kg at 10 min intervals, 5 min): 140 ng/mL; concentration at 10 min ([1]; female, 1 mg/kg, 8-times injection of 1 mg/kg at 10 min intervals, 10 min): 120 ng/mL; concentration at 30 min ([1]; female, 1 mg/kg, 8-times injection of 1 mg/kg at 10 min intervals, 30 min): 40 ng/mL; concentration at 60 min ([1]; female, 1 mg/kg, 8-times injection of 1 mg/kg at 10 min intervals, 60 min): 10 ng/mL; plasma concentration ([1]; male, 8-times injection of 1 mg/kg at 10 min intervals, 60 min, 1 mg/kg): 20 ng/mL; concentration at 5 min ([1]; male, 1 mg/kg, 8-times injection of 1 mg/kg at 10 min intervals, 5 min): 430 ng/mL; concentration at 60 min ([1]; male, 1 mg/kg, 8-times injection of 1 mg/kg at 10 min intervals, 60 min): 10 ng/mL; Cpd1 concentration (sheet Fig S5b) ([1]; time 5, dose head 3): 1.2 and 1.12 and 0.98; Cpd1 concentration (sheet Fig S5b) ([1]; time 5, dose head 10): 4.45 and 3.8 and 3.72; Cpd1 concentration (sheet Fig S5a) ([1]; time 10, dose head 3): 0.44 and 0.75 and 0.51; Cpd1 concentration (sheet Fig S5b) ([1]; time 10, dose head 3): 0.71 and 0.66 and 0.76; Cpd1 concentration (sheet Fig S5a) ([1]; time 10, dose head 10): 1.73 and 2.28 and 1.66; Cpd1 concentration (sheet Fig S5b) ([1]; time 10, dose head 10): 3.08 and 2.95 and 3.2; Cpd1 concentration (sheet Fig S5a) ([1]; time 30, dose head 3): 0.11 and 0.15 and 0.12; Cpd1 concentration (sheet Fig S5b) ([1]; time 30, dose head 3): 0.14 and 0.19; Cpd1 concentration (sheet Fig S5b) ([1]; time 30, dose head 10): 0.39 and 0.45 and 0.41; Cpd1 concentration (sheet Fig S5b) ([1]; time 60, dose head 3): 0.03 and 0.02; Cpd1 concentration (sheet Fig S5a) ([1]; time 60, dose head 10): 0.05 and 0.06 and 0.04; Cpd1 concentration (sheet Fig S5b) ([1]; time 60, dose head 10): 0.04 and 0.05 and 0.06; effect on isoflurane-induced increase in [Ca2+]i ([2]; R2509C cells, 0.1 μM): completely prevented; effect on resting [Ca2+]i (Cal520) ([2]; R2509C cells, 0.1 μM): reduced; Ca2+ signal (Cal520, F/F0) ([2]; R2509C cells, 0.1 μM Cpd1, halothane 0.0001): 1; Ca2+ signal (Cal520, F/F0) ([2]; R2509C cells, 0.1 μM Cpd1, halothane 0.001): 1.0324 and 1.0472 and 0.9774 and 0.9848 and 0.9736; Ca2+ signal (Cal520, F/F0) ([2]; R2509C cells, 0.1 μM Cpd1, halothane 0.003): 1.0085 and 1.0149 and 0.9846 and 0.9811 and 0.9717; Ca2+ signal (Cal520, F/F0) ([2]; R2509C cells, 0.1 μM Cpd1, halothane 0.01): 1.0131 and 1.0119 and 0.9966 and 0.9808 and 0.9633; Ca2+ signal (Cal520, F/F0) ([2]; R2509C cells, 0.1 μM Cpd1, halothane 0.03): 0.9989 and 1.0012 and 1.0266 and 1.0111 and 1.0033; Ca2+ signal (Cal520, F/F0) ([2]; R2509C cells, 0.1 μM Cpd1, halothane 0.1): 1.0006 and 0.9977 and 1.0575 and 1.0571 and 1.0156; Ca2+ signal (fura-2 ratio) ([2]; R2509C cells, 0.1 μM Cpd1, isoflurane 0): 1.236 and 1.532 and 1.49 and 1.463 and 1.64 and 1.372 and 1.497 and 1.401; Ca2+ signal (fura-2 ratio) ([2]; R2509C cells, 0.1 μM Cpd1, isoflurane 0.1): 1.237 and 1.533 and 1.482 and 1.467 and 1.643 and 1.374 and 1.485 and 1.496; Ca2+ signal (fura-2 ratio) ([2]; R2509C cells, 0.1 μM Cpd1, isoflurane 0.2): 1.24 and 1.549 and 1.492 and 1.502 and 1.673 and 1.396 and 1.504 and 1.444; Ca2+ signal (fura-2 ratio) ([2]; R2509C cells, 0.1 μM Cpd1, isoflurane 0.5): 1.266 and 1.58 and 1.488 and 1.503 and 1.677 and 1.451 and 1.62 and 1.544; effect on resting [Ca2+]i (fura-2) ([2]; R2509C cells, 0.1 and 0.3 µM): reduced [Ca^2+]i in R2509C cells in a dose-dependent manner; effect on halothane-induced increases in [Ca2+]i ([2]; R2509C cells, pretreatment 0.1 µM): completely abolished; Ca2+ signal with Cpd1 relative to None = 1 (sheet Fig S1b) ([2]; R2509C, single experiments): 0.9373 and 0.9655 and 0.9601 and 0.9482 and 0.7826 and 0.8571
